Source: ChEMBL document CHEMBL1153832, “Identification and characterization of UK-201844, a novel inhibitor that interferes with human immunodeficiency virus type 1 gp160 processing” (Antimicrob Agents Chemother, 2007)

Tests used:
[1] = tested on: Human immunodeficiency virus 1; assay: Antiviral activity against HIV1 bearing HIV1 NL4-3 envelope infected in human HeLa CD4 cells coexpressing LTR/beta-Gal gene assessed as reduction in virus-induced beta-galactosidase reporter gene activity after 72 hrs by single-cycle infection assay; type: functional, organism-based; conditions: Human immunodeficiency virus 1, HeLa
[2] = tested on: Human immunodeficiency virus 1; assay: Antiviral activity against HIV1 bearing VSV envelope infected in human HeLa CD4 cells coexpressing LTR/beta-Gal gene assessed as reduction in virus-induced beta-galactosidase reporter gene activity after 72 hrs by single-cycle infection assay; type: functional, organism-based; conditions: Human immunodeficiency virus 1, HeLa

SMILES: O=C(O)C1=CC(=C(c2ccc(O)c(C(=O)O)c2)c2ccc(O)c(C(=O)O)c2)C=CC1=O [AURINTRICARBOXYLIC ACID]
- EC50 [1]: 0.076 µM
- EC50 [2]: > 76 µM
